Key:
[1] = Peptide diluent matrix (precipitation on dilution of DMSO dissolved peptides); assay type: physicochemical; settings: 5 peptides in one vial diluted to 400 μg/mL
Experimental: Additional peptide solubility conditions were tested. Peptides CS6709, CS6712, CS6720, CS6726, and CS6783 were weighed at approximately 10 mg each. The peptides were then dissolved in approximately 200 μL USP grade DMSO to obtain a 50 mg/mL concentration for each peptide. […] The sample appeared to be cloudy. […] The volume of CS6709 added to the single vial was 120 μL. […] Upon addition of the PBS pH 7.4, it was observed that one or more of the peptides had precipitated out. To determine which of the peptides precipitated, Applicants followed the matrix in Table 5 below using very small amounts (10-20 μL) of the DMSO dissolved peptides and adding these peptides to the various liquids.

[2] = Peptide solubility evaluation: dissolution in DMSO, dilution in D5W with or without succinate; assay type: physicochemical; settings: DMSO/D5W; Table 4; Y/N; diluted to 2 mg/ml; read-out: Solubility In DMSO/D5W
Experimental: In a representative procedure, peptides were weighed and corrected for % peptide content, and then dissolved in DMSO to a concentration of 50 mg/mL. The DMSO/Peptide solution was then diluted with 5 mM sodium succinate in D5W to a 2 mg/mL peptide concentration.
Additional peptide solubility conditions were tested. Peptides CS6709, CS6712, CS6720, CS6726, and CS6783 were weighed at approximately 10 mg each. The peptides were then dissolved in approximately 200 μL USP grade DMSO to obtain a 50 mg/mL concentration for each peptide. […] Additional 50 μL increments of DMSO were added to Peptide CS6709 up to 400 μL; for a total of 600 μL of DMSO.
Based on gross weight and peptide content, 15 mg (net weight) or slightly more of each individual peptide are weighed and 100% USP Grade DMSO […] is added to achieve a final peptide concentration of 50 mg/ml.

Precipitation when PBS pH 7.4 was added as diluent to the peptide mixture [1]: precipitate
solubility [2]: < 2000 µg/mL
Substance: H-LLTDRNTSGTTFTLLGVSDYPELQVPLFLVFLA-OH [CS6783]

Reference: US20160310584A1, “FORMULATIONS FOR NEOPLASIA VACCINES” (THE BROAD INSTITUTE INC., priority 2013, published 2016)
